Measurements: ChEMBL document CHEMBL1201862, “PubChem BioAssay data set” (2004)
Blank lines part the entries; values can stand above or below the compound they belong to. Activity calls are given as the source filed them.

Experiments:
[1] = target: T1, Aminopeptidase N (Plasmodium falciparum FcB1/Columbia, UniProt O96935); assay: P. falciparum M1AAP inhibitors, biochemical, fluorogenic H-Leu-NHMec substrate, 1536-well (AID 1445); set-up: species or system Plasmodium falciparum 3D7, 3D7
T1 sequence (O96935 whole entry): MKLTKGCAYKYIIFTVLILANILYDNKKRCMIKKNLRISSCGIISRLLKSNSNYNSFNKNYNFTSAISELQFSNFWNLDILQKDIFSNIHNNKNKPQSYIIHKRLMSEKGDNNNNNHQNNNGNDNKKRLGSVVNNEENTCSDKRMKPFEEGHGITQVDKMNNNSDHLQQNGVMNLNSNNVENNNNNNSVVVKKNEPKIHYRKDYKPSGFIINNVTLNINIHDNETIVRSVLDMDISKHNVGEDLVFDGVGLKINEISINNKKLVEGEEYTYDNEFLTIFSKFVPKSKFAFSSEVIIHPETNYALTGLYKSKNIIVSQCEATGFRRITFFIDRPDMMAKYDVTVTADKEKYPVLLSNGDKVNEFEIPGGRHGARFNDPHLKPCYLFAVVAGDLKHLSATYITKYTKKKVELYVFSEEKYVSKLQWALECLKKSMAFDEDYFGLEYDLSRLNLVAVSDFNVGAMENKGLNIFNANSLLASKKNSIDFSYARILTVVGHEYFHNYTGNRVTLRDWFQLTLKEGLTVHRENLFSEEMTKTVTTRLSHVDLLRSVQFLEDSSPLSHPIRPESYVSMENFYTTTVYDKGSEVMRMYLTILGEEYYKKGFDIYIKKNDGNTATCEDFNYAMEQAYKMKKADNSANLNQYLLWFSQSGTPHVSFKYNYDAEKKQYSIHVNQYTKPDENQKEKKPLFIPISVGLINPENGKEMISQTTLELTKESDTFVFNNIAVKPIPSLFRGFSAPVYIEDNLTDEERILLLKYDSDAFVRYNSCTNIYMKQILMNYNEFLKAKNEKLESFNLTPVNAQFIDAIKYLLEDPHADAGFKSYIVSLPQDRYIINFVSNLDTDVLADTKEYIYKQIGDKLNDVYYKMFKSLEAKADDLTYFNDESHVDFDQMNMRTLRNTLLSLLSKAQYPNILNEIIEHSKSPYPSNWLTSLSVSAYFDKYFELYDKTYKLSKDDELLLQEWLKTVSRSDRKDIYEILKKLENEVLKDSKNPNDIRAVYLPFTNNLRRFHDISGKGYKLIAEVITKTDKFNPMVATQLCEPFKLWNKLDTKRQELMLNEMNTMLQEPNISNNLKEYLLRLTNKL

[2] = target: Prothrombin (Bos taurus, UniProt P00735); assay: thrombin inhibition, dose response, biochemical, fluorescence polarization, uHTS hits (AID 602369); assay type: functional
[3] = target: 26S proteasome non-ATPase regulatory subunit 14 (Homo sapiens, UniProt O00487); assay: inhibition of proteasome subunit RPN11 – biochemical, fluorescence polarization, uHTS hits, confirmation (AID 602368); assay type: functional
[4] = target: 72 kDa type IV collagenase (Homo sapiens, UniProt P08253); assay: Dose Response validation of uHTS RPN11 inhibitor hits using a MMP-2 Fluorescence assay.; assay type: functional
[5] = tested on: HEK293; assay: inhibitors of LMP1-driven NF-kB reporter, dose response, cell-based, HEK293, luciferase, cherry-pick (AID 588343); assay type: functional; conditions: Homo sapiens
[6] = target: T2, Sentrin-specific protease 6 (Homo sapiens, UniProt Q9GZR1); assay type: functional;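 note: Luminescence-based dose-response confirmatory assay of SENP6 inhibition, following up an ultra-high-throughput screen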
T2 sequence (Q9GZR1 whole entry): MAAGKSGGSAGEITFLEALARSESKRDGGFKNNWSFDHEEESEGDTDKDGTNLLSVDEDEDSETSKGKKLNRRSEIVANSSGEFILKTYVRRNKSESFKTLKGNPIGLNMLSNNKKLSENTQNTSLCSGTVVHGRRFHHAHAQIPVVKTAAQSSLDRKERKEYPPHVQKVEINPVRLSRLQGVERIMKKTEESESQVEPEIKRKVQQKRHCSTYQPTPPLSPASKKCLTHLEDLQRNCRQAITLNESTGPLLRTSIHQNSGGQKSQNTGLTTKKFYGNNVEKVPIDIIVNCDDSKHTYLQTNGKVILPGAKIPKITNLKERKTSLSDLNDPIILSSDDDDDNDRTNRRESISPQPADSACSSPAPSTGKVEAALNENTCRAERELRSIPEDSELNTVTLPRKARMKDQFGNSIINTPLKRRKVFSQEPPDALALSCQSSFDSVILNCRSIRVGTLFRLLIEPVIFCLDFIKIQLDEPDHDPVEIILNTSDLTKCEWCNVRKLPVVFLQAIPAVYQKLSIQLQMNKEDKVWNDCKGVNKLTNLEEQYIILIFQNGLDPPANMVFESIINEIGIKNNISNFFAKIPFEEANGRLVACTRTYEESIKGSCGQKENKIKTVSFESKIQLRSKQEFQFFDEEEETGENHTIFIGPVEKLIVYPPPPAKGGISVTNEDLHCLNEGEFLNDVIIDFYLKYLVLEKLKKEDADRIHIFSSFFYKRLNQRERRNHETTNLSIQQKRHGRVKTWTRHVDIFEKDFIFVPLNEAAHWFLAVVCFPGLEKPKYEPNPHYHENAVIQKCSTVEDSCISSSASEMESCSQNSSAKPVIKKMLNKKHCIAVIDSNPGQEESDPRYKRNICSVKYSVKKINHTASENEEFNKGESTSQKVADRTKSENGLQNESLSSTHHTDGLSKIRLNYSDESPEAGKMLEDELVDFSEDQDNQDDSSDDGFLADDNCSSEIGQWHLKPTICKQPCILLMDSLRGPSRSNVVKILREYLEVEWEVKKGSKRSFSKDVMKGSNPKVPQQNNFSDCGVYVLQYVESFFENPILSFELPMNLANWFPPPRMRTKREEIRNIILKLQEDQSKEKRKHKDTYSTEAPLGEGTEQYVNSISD

[7] = target: T3, Sentrin-specific protease 8 (Homo sapiens, UniProt Q96LD8); assay type: functional;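 note: luminescence read-out of SENP8 inhibition, dose-response confirmation following an ultra-high-throughput screen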
T3 sequence (Q96LD8 whole entry): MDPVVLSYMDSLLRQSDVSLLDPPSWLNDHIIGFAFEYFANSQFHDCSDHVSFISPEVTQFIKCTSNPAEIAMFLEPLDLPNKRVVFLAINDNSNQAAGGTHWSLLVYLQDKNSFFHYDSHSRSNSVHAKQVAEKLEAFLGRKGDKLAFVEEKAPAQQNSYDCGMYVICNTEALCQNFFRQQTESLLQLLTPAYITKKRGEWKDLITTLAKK

[8] = target: T4, Sentrin-specific protease 7 (Homo sapiens, UniProt Q9BQF6); assay type: functional;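 note: Luminescence-based dose-response confirmation of ultra-high-throughput screening hits, measuring inhibition of SENP7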
T4 sequence (Q9BQF6 whole entry): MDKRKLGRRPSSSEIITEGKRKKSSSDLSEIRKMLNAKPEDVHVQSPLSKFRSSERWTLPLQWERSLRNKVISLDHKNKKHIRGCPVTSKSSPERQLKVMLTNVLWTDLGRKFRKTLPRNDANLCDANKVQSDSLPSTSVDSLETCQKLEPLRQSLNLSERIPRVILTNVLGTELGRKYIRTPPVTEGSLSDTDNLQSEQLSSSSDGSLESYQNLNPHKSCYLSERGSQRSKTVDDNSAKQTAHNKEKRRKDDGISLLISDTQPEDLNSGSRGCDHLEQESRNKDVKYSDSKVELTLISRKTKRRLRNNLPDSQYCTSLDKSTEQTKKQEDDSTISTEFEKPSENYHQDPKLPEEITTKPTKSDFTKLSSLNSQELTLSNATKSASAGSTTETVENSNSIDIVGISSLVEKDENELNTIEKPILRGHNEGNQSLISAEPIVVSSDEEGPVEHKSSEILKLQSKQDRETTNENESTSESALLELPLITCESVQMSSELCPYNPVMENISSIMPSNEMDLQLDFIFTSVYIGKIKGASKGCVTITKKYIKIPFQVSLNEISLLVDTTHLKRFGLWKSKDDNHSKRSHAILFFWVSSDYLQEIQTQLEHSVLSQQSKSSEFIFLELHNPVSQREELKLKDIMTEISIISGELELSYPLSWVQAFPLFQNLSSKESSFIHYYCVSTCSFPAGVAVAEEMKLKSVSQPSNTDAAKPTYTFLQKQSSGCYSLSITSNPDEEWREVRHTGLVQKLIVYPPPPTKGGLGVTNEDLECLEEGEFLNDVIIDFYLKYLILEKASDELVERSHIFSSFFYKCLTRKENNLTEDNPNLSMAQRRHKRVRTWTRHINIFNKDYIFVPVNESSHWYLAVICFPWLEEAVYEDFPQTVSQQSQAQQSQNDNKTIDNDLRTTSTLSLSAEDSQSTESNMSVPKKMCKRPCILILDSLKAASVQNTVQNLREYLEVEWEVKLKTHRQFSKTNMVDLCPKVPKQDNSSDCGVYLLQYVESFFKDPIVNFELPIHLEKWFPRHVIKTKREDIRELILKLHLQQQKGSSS

[9] = target: Glucose-6-phosphate 1-dehydrogenase (Homo sapiens, UniProt P11413); assay: human G6PD enzyme inhibitors, dose response, selectivity assay for P. falciparum G6PD inhibitor project, biochemical, fluorescence (AID 504792); assay type: functional
[10] = target: T5, Carboxy-terminal domain RNA polymerase II polypeptide A small phosphatase 1 (Homo sapiens, UniProt Q9GZU7); assay: inhibitors of CTDSP1, concentration-response testing, biochemical assay, absorbance-based, actives from ultra-high-throughput screening (AID 540297); assay type: functional
T5 sequence (Q9GZU7 whole entry): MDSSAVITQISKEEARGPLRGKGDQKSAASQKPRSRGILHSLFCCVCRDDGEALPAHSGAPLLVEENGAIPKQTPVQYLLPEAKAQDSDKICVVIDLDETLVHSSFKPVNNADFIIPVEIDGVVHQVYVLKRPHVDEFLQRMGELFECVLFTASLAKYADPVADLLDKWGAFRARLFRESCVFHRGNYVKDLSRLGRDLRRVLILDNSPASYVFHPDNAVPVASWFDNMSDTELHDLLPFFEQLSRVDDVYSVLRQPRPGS

[11] = inhibitors of intracellular T. cruzi replication, confirmation, NIH3T3 host cells, beta-gal luminescence (AID 2044); assay type: functional, cell-based;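 note: intracellular parasites grown in NIH/3T3 mouse fibroblasts as host cells; luminescent beta-galactosidase reporter signal from transgenic T. cruzi replicating inside host cells; inhibitors lower the luminescence signal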
[12] = cytotoxicity toward NIH3T3 fibroblasts, dose response, counter-screen, cell-based, ATP luminescence, mouse fibroblasts (AID 2010); assay type: functional;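 note: cells exposed to compound for about 90 hours before reading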

Chain of 26S proteasome non-ATPase regulatory subunit 14 (O00487 whole entry): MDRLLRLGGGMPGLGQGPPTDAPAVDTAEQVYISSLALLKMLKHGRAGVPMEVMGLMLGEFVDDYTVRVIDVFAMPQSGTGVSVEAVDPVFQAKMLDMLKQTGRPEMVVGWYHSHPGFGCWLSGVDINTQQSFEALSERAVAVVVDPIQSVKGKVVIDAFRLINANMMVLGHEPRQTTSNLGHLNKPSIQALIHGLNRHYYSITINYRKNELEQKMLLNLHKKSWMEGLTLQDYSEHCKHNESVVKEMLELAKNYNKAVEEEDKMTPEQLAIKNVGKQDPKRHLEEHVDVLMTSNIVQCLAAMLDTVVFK
Chain of 72 kDa type IV collagenase (P08253 whole entry): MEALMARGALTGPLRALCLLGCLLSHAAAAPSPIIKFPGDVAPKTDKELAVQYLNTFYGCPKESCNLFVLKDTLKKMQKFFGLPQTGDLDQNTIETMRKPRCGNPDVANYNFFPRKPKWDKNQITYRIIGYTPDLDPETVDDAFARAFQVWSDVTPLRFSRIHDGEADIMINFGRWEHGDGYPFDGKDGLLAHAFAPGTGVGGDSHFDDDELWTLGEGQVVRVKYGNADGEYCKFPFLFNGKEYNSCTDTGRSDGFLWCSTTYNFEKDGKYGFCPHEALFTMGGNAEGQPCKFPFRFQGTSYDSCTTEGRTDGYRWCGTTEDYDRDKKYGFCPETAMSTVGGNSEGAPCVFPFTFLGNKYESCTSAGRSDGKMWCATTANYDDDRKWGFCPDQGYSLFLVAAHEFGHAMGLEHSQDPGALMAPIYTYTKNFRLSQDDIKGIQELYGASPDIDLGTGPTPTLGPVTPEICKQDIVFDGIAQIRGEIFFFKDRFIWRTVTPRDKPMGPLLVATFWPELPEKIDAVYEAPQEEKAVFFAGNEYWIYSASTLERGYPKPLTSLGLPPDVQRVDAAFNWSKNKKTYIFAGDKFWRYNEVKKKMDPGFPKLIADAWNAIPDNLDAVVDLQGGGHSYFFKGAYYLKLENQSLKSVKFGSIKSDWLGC
Chain of Glucose-6-phosphate 1-dehydrogenase (P11413 whole entry, the tested form may be a part): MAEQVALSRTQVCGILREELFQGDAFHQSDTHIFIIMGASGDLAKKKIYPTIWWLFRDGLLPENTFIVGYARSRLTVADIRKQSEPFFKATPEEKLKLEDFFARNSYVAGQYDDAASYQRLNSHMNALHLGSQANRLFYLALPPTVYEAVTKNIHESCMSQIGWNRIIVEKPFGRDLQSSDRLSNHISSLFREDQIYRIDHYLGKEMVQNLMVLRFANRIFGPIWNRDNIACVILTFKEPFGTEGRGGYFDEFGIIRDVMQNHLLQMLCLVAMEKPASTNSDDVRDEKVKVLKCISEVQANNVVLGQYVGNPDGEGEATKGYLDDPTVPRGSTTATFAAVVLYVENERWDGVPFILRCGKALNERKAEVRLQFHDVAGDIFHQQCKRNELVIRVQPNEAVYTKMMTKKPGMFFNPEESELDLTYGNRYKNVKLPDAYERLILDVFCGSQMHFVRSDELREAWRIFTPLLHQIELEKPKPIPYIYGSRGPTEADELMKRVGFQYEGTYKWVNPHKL

- IC50 [1]: 52.1 µM (active)
Compound: COc1cc(/C=C(/C#N)c2nc3ccccc3[nH]2)ccc1OCc1ccc(C(=O)O)o1

- IC50 [1]: 58.6 µM (active)
Compound: O=C(O)c1cccc(NC(S)=NC(NC(=O)c2ccccc2[N+](=O)[O-])C(Cl)(Cl)Cl)c1 (stereo not given)

- IC50 [1]: 68.1 µM (active)
Compound: CCCN1C(=O)/C(=C/c2c(N3CCNC(=O)C3CC(=O)OC)nc3c(C)cccn3c2=O)SC1=S (stereo not given)

- IC50 [2]: 77.9 µM (active)
- IC50 [3]: 33.9 µM (active)
- IC50 [4]: > 100 µM (inactive)
Compound: CCOC(=O)Cc1csc(NC(=O)c2sc3nc4ccc(C)cc4cc3c2N)n1

Compound: CCOc1ccc(NC(=O)c2ccc(N3CC4CC(C3)c3cccc(=O)n3C4)c(NC(=O)c3cccnc3)c2)cc1 (stereo not given)
- AC50 [5]: > 350 µM (inactive)

- IC50 [6]: 8.61 µM (active)
- IC50 [8]: 5.88 µM (active)
Compound: CC(=O)Nc1nc(COc2ccc3ccccc3c2)cs1
- IC50 [7]: 9.93 µM (active)

Compound: CCn1c([N+](=O)[O-])nc2c1c(=O)[nH]c(=O)n2C
- IC50 [9]: > 80 µM (inactive)

Compound: CC1=NN(c2nc(-c3ccc(C)cc3)cs2)C(=O)C1N=Nc1ccccc1O (stereo not given)
- IC50 [10]: 3.69 µM (active)
- EC50 [11]: 1.63 µM (active)
- IC50 [1]: 3.37 µM (active)
- EC50 [12]: > 60 µM (not active)
